Blank lines part the entries; values can stand above or below the molecule they belong to.
Key:
collagenase AP-1 site = assay: Gel retardation assay, binding to DNA fragment containing the collagenase AP-1 site; conditions: in vitro synthesized protein, 32P-labelled fragment
Procedure: In vitro synthesized glucocorticoid receptor (GR) and retinoic acid receptor (RAR) were incubated with ^32P-labelled DNA fragment derived from −73 COL-CAT by Hind III and Bam HI digestion. Protein-DNA complex was analyzed by gel retardation assay. Control represents the binding of unprogrammed reticulocyte lysate.
Gel retardation experiments were carried out with a 60 bp DNA fragment containing the collagenase AP-1 site.

RARβ binding to RARE = molecular target: T1, RARβ binding to RARE (Homo sapiens, UniProt P10826); assay: Gel retardation assay, effect on RARβ binding to RARE; conditions: bacterially produced cJun pre-incubated with RARβ
T1 construct: made in house; host or cells: in vitro translation (reticulocyte lysate)
T1 sequence (P10826 1-455): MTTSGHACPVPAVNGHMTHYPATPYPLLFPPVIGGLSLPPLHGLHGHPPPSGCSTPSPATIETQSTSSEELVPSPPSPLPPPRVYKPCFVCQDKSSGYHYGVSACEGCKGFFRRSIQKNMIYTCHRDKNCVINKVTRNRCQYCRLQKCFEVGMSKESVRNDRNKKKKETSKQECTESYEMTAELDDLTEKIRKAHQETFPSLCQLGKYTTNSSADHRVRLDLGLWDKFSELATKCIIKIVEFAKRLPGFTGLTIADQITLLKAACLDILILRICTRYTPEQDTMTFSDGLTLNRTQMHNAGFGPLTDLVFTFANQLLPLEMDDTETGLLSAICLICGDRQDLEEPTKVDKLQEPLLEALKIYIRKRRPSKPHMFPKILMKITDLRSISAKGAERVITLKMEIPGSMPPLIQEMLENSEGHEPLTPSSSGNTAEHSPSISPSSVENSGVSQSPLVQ
Procedure: In vitro synthesized RAR protein was incubated with ^32P-labelled DNA fragment containing one copy of RARE. The binding of RAR on RARE was analyzed by gel retardation assay. […] C represents the binding of unprogrammed reticulocyte lysate in FIG. 5. To test the effect of cJun protein on RAR binding, excess amount of bacterial expressed Jun protein was incubated with RAR at 37° C. for 15 minutes before the addition of DNA. When anti-cJun (a cJun) was used, it was incubated with Jun protein at room temperature for 45 minutes before mixing with RAR protein.
This inhibition was specific as it was prevented by pre-incubation of cJun with anti-Jun antibodies.

[1] = molecular target: T2, cJun binding to the AP-1 site (Homo sapiens, UniProt P05412); assay: Gel retardation assay, effect on cJun binding to the AP-1 site; conditions: one-fold or five-fold excess, 37° C. for 15 minutes
T2 construct: made in house; host or cells: cell-free (in vitro) translation or bacteria
T2 sequence (P05412 whole entry): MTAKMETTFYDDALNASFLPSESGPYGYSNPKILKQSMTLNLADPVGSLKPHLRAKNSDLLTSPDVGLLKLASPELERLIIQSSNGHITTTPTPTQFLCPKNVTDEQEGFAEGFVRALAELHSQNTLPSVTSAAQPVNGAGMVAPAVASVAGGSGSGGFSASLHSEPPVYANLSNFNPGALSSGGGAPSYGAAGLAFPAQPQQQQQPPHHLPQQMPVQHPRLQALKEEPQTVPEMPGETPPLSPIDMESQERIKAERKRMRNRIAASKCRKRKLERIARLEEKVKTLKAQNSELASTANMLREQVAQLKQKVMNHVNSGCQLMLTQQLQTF
Procedure: In vitro synthesized cJun protein was incubated with one-fold (1) or five-fold (5) excess of in vitro synthesized RARβ or RARγ protein at 37° C. for 15 minutes. The effect of RARβ or RARγ or cJun binding was analyzed by gel retardation assay.
The Inhibition of cJun binding to the AP-1 site was dependent on the amount of RARs used, and was also observed in response to pre-incubation with in vitro synthesized GR (FIG. 4). As shown for the GRs in Example VI, this in vitro inhibition of cJun binding was ligand independent. The inhibition of Jun binding activity is a specific effect of each receptor because pre-incubation of the cell-free translated RARβ with anti-RAR antibodies prevented this inhibition, while pre-incubation with anti-GR or preimmune serum had no effect. Likewise, the inhibitory activity of cell-free translated GR is inhibited by anti-GR antibodies, but not by anti-RAR or preimmune serum. […] We therefore investigated whether the binding of the heterodimers could also be inhibited by the RAR.

[2] = tested on: TPA induced collagenase promoter activity (TRα); assay: -73 Col CAT reporter in CV-1 cells, T3 dependent repression by TRα; format: cell-based
Procedure: In addition, applicants have discovered that the thyroid hormone receptor, in the presence of Thyroid hormone, binds AP-1 through a protein/protein interaction and inhibits the transcription of AP-1 activated genes. Specifically, TRα represses TPA induced collagenase promoter activity in a T3 dependent fashion. The −73 Col CAT reporter gene was cotransfected into CV-1 cells with an expression vector for […]. Cells were grown in the presence of the indicated amounts of T3 and/or TPA.

[3] = tested on: collagenase promoter lacking AP-1 site (-63Col-CAT); assay: -63Col-CAT reporter co-transfected with RARβ in HeLa cells; format: cell-based; conditions: presence or absence of RA
[4] = tested on: collagenase promoter AP-1 site (RARβ); assay: -73Col-CAT reporter co-transfected with RARβ expression vector in HeLa cells, TPA induced CAT activity; format: cell-based
Procedure: The −73 Col CAT reporter gene was cotransfected into HeLa with an expression vector for RARβ/ε. Cells were grown in the presence of the indicated amounts of RA and/or TPA.

- binding to collagenase AP-1 site or synthetic AP-1 site (collagenase AP-1 site): specific binding
Molecule: cJun: bacterially produced or in vitro translated cJun protein, AP-1 component
- inhibition of RARβ DNA binding activity on RARE (RARβ binding to RARE): inhibited its DNA binding activity in a concentration dependent manner

- binding to collagenase AP-1 site or synthetic AP-1 site (collagenase AP-1 site): did not bind
- inhibition of cJun binding to the AP-1 site [1]: also observed
Molecule: GR: in vitro synthesized glucocorticoid receptor

Molecule: N[C@@H](Cc1cc(I)c(Oc2ccc(O)c(I)c2)c(I)c1)C(=O)O [T3]
- repression of TPA collagenase promoter activity [2]: dependant on the concentration of T3

- IC50 ([4]; Homo sapiens, read-out: half maximal inhibition of TPA induced activity of -73 Col-CAT by RARβ): 1 nM
Molecule: CC1=C(/C=C/C(C)=C/C=C/C(C)=C/C(=O)O)C(C)(C)CCC1 [RA, retinoic acid]
- effect on -63Col-CAT activity [3]: no effect
- concentration required for maximal repression of TPA induced activity of -73 Col-CAT [4]: 10^−6 M

- binding to collagenase AP-1 site or synthetic AP-1 site (collagenase AP-1 site): did not bind
- inhibition of cJun binding to the AP-1 site [1]: significant inhibition
B1: RARβ: in vitro synthesized (cell-free translated) retinoic acid receptor β protein (protein, UniProt P10826 1-455, looked up)
Retinoic acid receptor beta: T1 sequence (P10826 1-455)

- inhibition of cJun binding to the AP-1 site [1]: significant inhibition
B2: RARγ: in vitro synthesized (cell-free translated) retinoic acid receptor γ protein (protein, UniProt P13631 1-454, looked up)
Retinoic acid receptor gamma: MATNKERLFAAGALGPGSGYPGAGFPFAFPGALRGSPPFEMLSPSFRGLGQPDLPKEMASLSVETQSTSSEEMVPSSPSPPPPPRVYKPCFVCNDKSSGYHYGVSSCEGCKGFFRRSIQKNMVYTCHRDKNCIINKVTRNRCQYCRLQKCFEVGMSKEAVRNDRNKKKKEVKEEGSPDSYELSPQLEELITKVSKAHQETFPSLCQLGKYTTNSSADHRVQLDLGLWDKFSELATKCIIKIVEFAKRLPGFTGLSIADQITLLKAACLDILMLRICTRYTPEQDTMTFSDGLTLNRTQMHNAGFGPLTDLVFAFAGQLLPLEMDDTETGLLSAICLICGDRMDLEEPEKVDKLQEPLLEALRLYARRRRPSQPYMFPRMLMKITDLRGISTKGAERAITLKMEIPGPMPPLIREMLENPEMFEDDSSQPGPHPNASSEDEVPGGQGKGGLKSPA

From patent publication US6683047B1, “Method of inhibiting transcription utilizing nuclear receptors” (The Burnham Institute, priority 1990, dated 2004)
